These are literature values, as cited in patent US6642275B2, “Formulation for respiratory tract administration” (Euro- Celtique, S.A., priority 1995, dated 2003).

Like-named read-outs stand apart in the source and are kept apart here.

For series [1] the following is noted: for plasma clearance rate: 100 mg IV dose.
For series [2] the following is noted: animal models, M1 vs tramadol.
For series [3], the system named is opioid receptors.
The mark [4] stands for this setting: single oral dose, adjusted for body weight.

`COc1cccc([C@@]2(O)CCCC[C@H]2CN(C)C)c1` (racemic) [tramadol, (±) trans-2-[(dimethylamino)methyl]-1-(3-methoxyphenyl) cyclohexanol]: in series [1] (females), the plasma clearance rate is 5.7 mL/min/kg. The plasma clearance rate in series [1] (males) was 6.4 mL/min/kg. For the same compound, in series [1] (setting [4]), the “higher area under the concentration-time curve in females compared to males” value is listed as 35% and the “higher peak tramadol concentration in females compared to males” value is 12%.

Turning to `CN(C)C[C@H]1CCCC[C@]1(O)c1cccc(O)c1` [Formula M1, mono-O-desmethyltramadol], the “potency in producing analgesia relative to tramadol” value is recorded as “up to 6 times” in series [2] and “about 6 times” in series [2] (listed as mono-O-desmethyltramadol). The “binding to opioid receptors (affinity, in words)” value in series [3] was “high affinity”. Besides, the “potency in opioid receptor binding relative to tramadol” value in series [3] (M1 vs tramadol) is 200 times.
